Reference: article PMC10747822 (Pharmaceutics, 2023)
Where a SMILES comes first, the peptide text is derived from it. [ ]: non-standard residue; d: D form. The star is where a group is joined. NH(4-amidinobenzyl) = N=C(N)c1ccc(CN*)cc1

Legend:
[1] = Autosampler (extract) stability; type: physicochemical; conditions: 24 h in autosampler
Method: Blood samples for calibration and QC purposes were generated through the addition of 25 µL of the pertinent spike solution to 20 µL of blank blood and the subsequent addition of 25 µL of IS solution. Calibration samples were produced at 10, 30, 100, 300, 1000, 3000, and 10,000 ng/mL, and QC samples were produced at concentrations of 10, 30, 3750, and 7500 ng/mL. For study sample processing, 20 µL of each sample was added to 25 µL of IS solution, and 25 µL of ACN/H2O 1/1 + 0.1% FA was added for volume compensation to ensure that sample preparation matches that of study blood samples. For stability reasons, each sample was immediately depleted from proteins by adding 150 µL ACN including 0.1% FA. Samples were processed individually and kept frozen until processing. Subsequently, samples were centrifuged at 13,200× g for 5 min. From the extracts, 10 µL was transferred to 400 µL of ACN/H2O 1/19 + 0.1% FA in wells of a 96-well collection plate (Waters, Milford, MA, USA).
The instrumental setup comprised an Acquity UPLC® Classic System coupled to a Xevo TQ-S triple-stage quadrupole mass spectrometer, which was equipped with a Z-spray heated electrospray ionization (ESI) source (Waters, Milford, MA, USA). […] This yielded an optimal cone voltage of 30 V and collision energy of 10 V. The monitored mass transitions were m/z 343.3 → 436.9 for Ac-[D-Leu]LLLRVK-amba and m/z 345.6 → 440.4 for the IS.
The applicable recommendations for bioanalytical method validation of the FDA and EMA were applied to the validation of the assay. Accuracy was calculated as the percentage of the ratio of the mean of the determined concentrations and the nominal concentration. The acceptance limit is 100 ± 15%, with the exception of the LLOQ where it is 100 ± 20% Q. The assay precision was calculated as the coefficient of variation of the determined sample concentrations. […] Recovery of the whole blood extraction process was calculated from peak areas of QC samples divided by the peak areas obtained from blank blood spiked with the respective amount after processing. […]

[2] = mice; cited from earlier work
Method: The pharmacokinetics of Ac-[D-Leu]LLLRVK-amba was already determined after intravenous bolus injection. With a half-life of only 9 min, this route of administration only produced a short period of potentially effective concentrations. […] Therefore, we aimed at flattening the pharmacokinetic profile with alternate routes of administr ...

## CC(=O)N[C@H](CC(C)C)C(=O)N[C@@H](CC(C)C)C(=O)N[C@@H](CC(C)C)C(=O)N[C@@H](CC(C)C)C(=O)N[C@@H](CCCNC(=N)N)C(=O)N[C@H](C(=O)N[C@@H](CCCCN)C(=O)NCc1ccc(C(=N)N)cc1)C(C)C [Ac-[D-Leu]LLLRVK-amba] (Ac-[dL]LLLRVK-{NH(4-amidinobenzyl)})
[1]; QC A
  autosampler (extract) stability, Accuracy [%]: 98.3%
[1]; QC B
  autosampler (extract) stability, Accuracy [%]: 99.7%
[1]; QC C
  autosampler (extract) stability, Accuracy [%]: 97.5%
[2]
  half-life after intravenous bolus injection (previous study): 9 min
